# Measurements taken from patent EP1099438A2, “Use of APO B secretion/MTP inhibitors” (Pfizer Products Inc., priority 1999, dated 2001).
# Test system: food intake
# Test: food intake reduction determination protocol in dogs
# Assay type: in vivo
# Conditions: male beagles, oral gavage, dosing solution 0.5 mg/mL at 1 mL per kg body weight, single dose on Days 0 and 5-12; 24 hour food consumption versus amount consumed prior to Day 0
# From the text: Healthy, young adult (1-2 years of age) male beagles (Marshall Farms, North Rose, New York, NY 14516) weighing 11.45 - 12.45 kg at the start of the treatment period were employed as test subjects. The animals were housed individually in standard caging meeting or exceeding the USDA regulations (U.S. Department of Agriculture, Animal Welfare, Final Rules. 9 C.F.R. Parts 1-3, 1995).
# The test compound was provided as a water-soluble powder. The dosing solution, administered by oral gavage, was provided employing a 0.025 M citrate buffer (approx. pH = 3) prepared using anhydrous citric acid (0.4 g/mL) and anhydrous sodium citrate (0.1 g/mL) as the test vehicle. The dosing solution was prepared at 0.5 mg/mL activity so that 1 mL was delivered per kg body weight. Following a fourteen day acclimation period (designated as Days -14 to -1), during which time the test animals were evaluated for certain criteria including determination of body weight and physical examinations, a sixteen day evaluation study was effected.
# The study consisted of one group of animals containing five dogs. On Days 0 and 5-12, each dog received the dosing solution administered as a single dose at Time 0 on each dosing day via a feeding tube. […]
# Reduction in food intake was quantitated by weighing individual food bowls each day prior to feeding and at the end of each 24 hour consumption period. […]
row,Compound,reduced food intake in dogs [%]
1,"CCCCN1CCc2cc(NC(=O)c3ccccc3-c3ccc(C(F)(F)F)cc3)ccc2C1 [4'-trifluoromethyl-biphenyl-2-carboxylic acid-(2-butyl-1,2,3,4-tetrahydroisoquinolin-6-yl)-amide]",30
2,"CC(=O)NCCN1CCc2cc(NC(=O)c3ccccc3-c3ccc(C(F)(F)F)cc3)ccc2C1 [4'-trifluoromethyl-biphenyl-2-carboxylic acid-[2-(2-acetylaminoethyl)-1,2,3,4-tetrahydroisoquinolin-6-yl amide]",58
